Assay results published in PMC3961306, “Comparison of the Cancer Gene Targeting and Biochemical Selectivities of All Targeted Kinase Inhibitors Approved for Clinical Use” (PLoS ONE, 2014).

Experiments:
Test in all cases: Kinase profiling in a biochemical assay panel (mobility shift assays and ELISA), %-inhibition at 1 μM; selectivity entropy
[1] = biological target: panel of more than 300 wild-type and mutant kinases (313 kinase panel) (Homo sapiens, UniProt P51451); conditions: kinase BLK; 1 μM compound
[2] = biological target: T1, panel of more than 300 wild-type and mutant kinases (313 kinase panel) (Homo sapiens, UniProt P54753)
T1 sequence (P54753 34-998): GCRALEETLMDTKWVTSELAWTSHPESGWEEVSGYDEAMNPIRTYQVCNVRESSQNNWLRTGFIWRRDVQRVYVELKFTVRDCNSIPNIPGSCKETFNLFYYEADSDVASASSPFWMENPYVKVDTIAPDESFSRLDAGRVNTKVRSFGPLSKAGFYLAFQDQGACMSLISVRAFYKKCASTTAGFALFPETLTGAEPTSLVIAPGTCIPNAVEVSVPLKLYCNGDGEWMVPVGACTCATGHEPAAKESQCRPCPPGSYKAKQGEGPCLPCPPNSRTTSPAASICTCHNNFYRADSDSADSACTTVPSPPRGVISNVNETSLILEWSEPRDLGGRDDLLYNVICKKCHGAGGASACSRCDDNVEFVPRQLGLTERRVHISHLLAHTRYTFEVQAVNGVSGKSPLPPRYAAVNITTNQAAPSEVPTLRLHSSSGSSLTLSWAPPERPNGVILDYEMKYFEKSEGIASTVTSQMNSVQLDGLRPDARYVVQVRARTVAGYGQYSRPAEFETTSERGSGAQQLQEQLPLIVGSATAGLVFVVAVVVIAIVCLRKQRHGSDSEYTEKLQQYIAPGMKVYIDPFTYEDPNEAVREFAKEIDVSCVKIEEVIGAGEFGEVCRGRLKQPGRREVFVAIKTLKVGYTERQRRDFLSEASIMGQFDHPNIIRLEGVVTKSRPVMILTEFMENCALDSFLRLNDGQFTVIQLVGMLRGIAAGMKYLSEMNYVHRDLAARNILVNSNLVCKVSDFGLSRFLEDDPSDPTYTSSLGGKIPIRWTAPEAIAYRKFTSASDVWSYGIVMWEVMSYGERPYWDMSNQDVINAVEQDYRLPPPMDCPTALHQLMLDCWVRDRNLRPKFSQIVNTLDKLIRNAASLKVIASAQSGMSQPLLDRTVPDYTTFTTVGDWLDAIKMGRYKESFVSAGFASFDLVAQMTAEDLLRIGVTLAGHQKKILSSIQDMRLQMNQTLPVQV

[3] = biological target: panel of more than 300 wild-type and mutant kinases (313 kinase panel) (Homo sapiens, UniProt Q05655)
[4] = biological target: panel of more than 300 wild-type and mutant kinases (313 kinase panel) (Homo sapiens, UniProt Q08345); conditions: kinase DDR1; compound at 1 μM
[5] = biological target: panel of more than 300 wild-type and mutant kinases (313 kinase panel) (Homo sapiens, UniProt Q15119); conditions: kinase PDHK2; 1 μM
[6] = biological target: T2, panel of more than 300 wild-type and mutant kinases (313 kinase panel) (Homo sapiens, UniProt Q8IWQ3); conditions: kinase BRSK2; 1 μM compound
T2 sequence (Q8IWQ3 1-736): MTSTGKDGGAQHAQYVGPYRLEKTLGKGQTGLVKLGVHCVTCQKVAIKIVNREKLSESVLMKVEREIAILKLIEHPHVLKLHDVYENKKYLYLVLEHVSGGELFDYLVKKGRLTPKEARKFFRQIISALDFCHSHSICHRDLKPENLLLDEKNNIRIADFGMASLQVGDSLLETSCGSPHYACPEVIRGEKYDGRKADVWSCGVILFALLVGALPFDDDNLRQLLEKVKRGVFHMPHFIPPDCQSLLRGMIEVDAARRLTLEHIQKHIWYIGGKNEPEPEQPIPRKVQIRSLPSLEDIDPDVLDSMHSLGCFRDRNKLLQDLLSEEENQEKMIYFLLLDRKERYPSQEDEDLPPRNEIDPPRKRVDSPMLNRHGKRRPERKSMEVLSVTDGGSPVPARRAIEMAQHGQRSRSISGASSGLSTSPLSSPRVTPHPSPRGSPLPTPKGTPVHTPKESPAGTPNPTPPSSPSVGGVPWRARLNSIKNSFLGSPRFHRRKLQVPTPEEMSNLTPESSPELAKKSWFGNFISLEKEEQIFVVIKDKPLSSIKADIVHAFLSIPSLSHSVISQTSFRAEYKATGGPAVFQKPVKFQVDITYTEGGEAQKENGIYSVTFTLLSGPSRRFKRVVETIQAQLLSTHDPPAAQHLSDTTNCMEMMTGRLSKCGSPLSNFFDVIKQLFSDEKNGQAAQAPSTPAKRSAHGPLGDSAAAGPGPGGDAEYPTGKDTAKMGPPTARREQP

[7] = biological target: panel of more than 300 wild-type and mutant kinases (313 kinase panel) (Homo sapiens, UniProt Q9UM73, L1196M); conditions: kinase ALK(L1196M); 1 μM compound

Row | Structure (SMILES) | %-inhibition, BLK [1] [%] | %-inhibition of EPHB3 ([2]; kinase EPHB3, compound at 1 μM) [%] | %-inhibition of PKCδ ([3]; 1 µM) [%] | %-inhibition of DDR1 [4] [%] | %-inhibition of PDHK2 [5] [%] | %-inhibition, BRSK2 [6] [%] | %-inhibition, ALK(L1196M) [7] [%] | %-inhibition of PKCδ ([3]; kinase PKCδ, 1 μM) [%] | %-inhibition of EPHB3 ([2]; 1 µM) [%]
1 | Cc1cn(-c2cc(NC(=O)c3ccc(C)c(Nc4nccc(-c5cccnc5)n4)c3)cc(C(F)(F)F)c2)cn1 [nilotinib] | 29 | 92 | -14 | 103 | 0.549 | -0.27 | -42 | – | –
2 | Cc1ccc(Nc2nccc(N(C)c3ccc4c(C)n(C)nc4c3)n2)cc1S(N)(=O)=O [pazopanib] | 62 | -0.529 | – | 97 | -4.23 | -2.18 | 25 | -3 | –
3 | CNC(=O)c1cc(Oc2ccc(NC(=O)Nc3ccc(Cl)c(C(F)(F)F)c3)c(F)c2)ccn1 [regorafenib] | 25 | 22 | – | 101 | 7 | -15 | 0.358 | 2.2 | –
4 | CO[C@H]1C[C@@H]2CC[C@@H](C)[C@@](O)(O2)C(=O)C(=O)N2CCCC[C@H]2C(=O)O[C@H]([C@H](C)C[C@@H]2CC[C@@H](OC(=O)C(C)(CO)CO)[C@H](OC)C2)CC(=O)[C@H](C)/C=C(\C)[C@@H](O)[C@@H](OC)C(=O)[C@H](C)C[C@H](C)/C=C/C=C/C=C/1C [temsirolimus] | -12 | -13 | – | -5.36 | -2.2 | -9 | -2.81 | -4 | –
5 | CC(=O)Nc1cccc(-n2c(=O)n(C3CC3)c(=O)c3c(Nc4ccc(I)cc4F)n(C)c(=O)c(C)c32)c1 [trametinib] | -2.79 | – | – | -2 | -0.542 | 5.38 | -3.42 | -4.75 | -5.47
6 | CCCS(=O)(=O)Nc1ccc(F)c(C(=O)c2c[nH]c3ncc(-c4ccc(Cl)cc4)cc23)c1F [vemurafenib] | 52 | 2 | – | 52 | 3.73 | -6 | 3 | -5 | –
